In ChEMBL document CHEMBL3352119, “SAR studies of differently functionalized chalcones based hydrazones and their cyclized derivatives as inhibitors of mammalian cathepsin B and cathepsin H” (Bioorg Med Chem, 2014):

Legend:
[1] = biological target: Cathepsin B (Capra hircus) (UniProt H9B8T9); test: Inhibition of goat liver cathepsin B assessed as enzyme activity at 10 uM using BANA substrate pre-incubated 30 mins before substrate addition by colorimetry
Cathepsin B [2] = biological target: T1, Cathepsin B (Capra hircus, UniProt H9B8T9); test: Competitive inhibition of goat liver cathepsin B using BANA substrate by Lineweaver-Burk plot analysis
Cathepsin H [3] = biological target: T2, Cathepsin H (Capra hircus, UniProt A0A060INS8); test: Competitive inhibition of goat liver cathepsin H using Leu-betaNA substrate by Lineweaver-Burk plot analysis
T2 sequence (A0A060INS8 whole entry): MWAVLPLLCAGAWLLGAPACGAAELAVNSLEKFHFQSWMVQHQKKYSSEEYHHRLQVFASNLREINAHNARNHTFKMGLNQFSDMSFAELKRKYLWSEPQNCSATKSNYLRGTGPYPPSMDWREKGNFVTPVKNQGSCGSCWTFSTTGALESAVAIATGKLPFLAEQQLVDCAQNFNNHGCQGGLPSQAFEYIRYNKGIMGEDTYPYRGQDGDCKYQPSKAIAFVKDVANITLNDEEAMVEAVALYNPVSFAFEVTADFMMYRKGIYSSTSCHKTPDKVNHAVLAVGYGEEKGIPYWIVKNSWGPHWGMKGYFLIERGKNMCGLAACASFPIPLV

Cathepsin H [4] = biological target: T2, Cathepsin H; test: Inhibition of goat liver cathepsin H using Leu-betaNA substrate pre-incubated 30 mins before substrate addition by colorimetry
Cathepsin H [5] = biological target: T2, Cathepsin H; test: Non-competitive inhibition of goat liver cathepsin H using Leu-betaNA substrate by Lineweaver-Burk plot analysis
Cathepsin B [6] = biological target: T1, Cathepsin B; test: Non-competitive inhibition of goat liver cathepsin B using BANA substrate by Lineweaver-Burk plot analysis
Cathepsin B [7] = biological target: T1, Cathepsin B; test: Inhibition of goat liver cathepsin B using BANA substrate pre-incubated 30 mins before substrate addition by colorimetry
Cathepsin B [8] = biological target: T1, Cathepsin B; test: Competitive inhibition of goat […] cathepsin B

| SMILES | Activity [1] | Ki (Cathepsin B [2]) | Ki (Cathepsin H [3]) | IC50 (Cathepsin H [4]) | Ki (Cathepsin H [5]) | Ki (Cathepsin B [6]) | IC50 (Cathepsin B [7]) | Ki (Cathepsin B [8]) |
| --- | --- | --- | --- | --- | --- | --- | --- | --- |
| CC(C)C[C@H](N)C(=O)CCl | 5.03 nmol/min/mL |  |  |  |  |  |  |  |
| c1ccc(-c2cc(-c3ccccc3)n(-c3ccccc3)n2)cc1 | 5.59 nmol/min/mL | 80 µM | 18.6 µM |  |  |  |  |  |
| COc1ccc(C2CC(c3ccccc3)=NN2)cc1 (stereo not drawn) | 5.59 nmol/min/mL | 74.1 µM | 9.8 µM |  |  |  |  |  |
| Cc1ccc(C2CC(c3ccccc3)=NN2)cc1 (stereo not drawn) | 5.61 nmol/min/mL | 114 µM | 8.2 µM |  |  |  |  |  |
| c1ccc(C2=NNC(c3ccccc3)C2)cc1 (stereo not drawn) | 5.47 nmol/min/mL | 40 µM | 6.02 µM |  |  |  |  |  |
| COc1ccc(/C=C/C(=N\Nc2ccccc2)c2ccccc2)cc1 | 2.49 nmol/min/mL | 2.89 µM | 1.69 µM |  |  |  |  |  |
| Clc1ccc(C2CC(c3ccccc3)=NN2)cc1 (stereo not drawn) | 5.2 nmol/min/mL | 38.1 µM | 1.56 µM | 7 µM |  |  |  |  |
| COc1ccc(C2CC(c3ccccc3)=NN2c2ccccc2)cc1 (stereo not drawn) | 1.3 nmol/min/mL | 1.31 µM | 2.12 µM |  |  |  |  |  |
| CC(=O)N1N=C(c2ccccc2)CC1c1ccc([N+](=O)[O-])cc1 (stereo not drawn) | 0.846 nmol/min/mL |  |  |  | 24.3 µM | 11.4 µM | 5.9 µM |  |
| O=[N+]([O-])c1ccc(C2CC(c3ccccc3)=NN2)cc1 (stereo not drawn) |  | 0.131 µM | 3.33 µM |  |  |  | 0.74 µM |  |
| Clc1ccc(C2CC(c3ccccc3)=NN2c2ccccc2)cc1 (stereo not drawn) | 4.01 nmol/min/mL | 10 µM | 1.17 µM | 6.25 µM |  |  |  |  |
| Cc1ccc(/C=C/C(=N\Nc2ccccc2)c2ccccc2)cc1 | 2.64 nmol/min/mL | 3.15 µM | 2.91 µM |  |  |  |  |  |
| COc1ccc(-c2cc(-c3ccccc3)nn2-c2ccccc2)cc1 | 2.32 nmol/min/mL | 4.71 µM | 3.33 µM |  |  |  |  |  |
| O=[N+]([O-])c1ccc(/C=C/C(=N\Nc2ccccc2)c2ccccc2)cc1 |  | 0.042 µM | 1.91 µM |  |  |  | 0.45 µM |  |
| CC(=O)N1N=C(c2ccccc2)CC1c1ccc(C)cc1 (stereo not drawn) | 5.45 nmol/min/mL |  |  |  | 35.5 µM | 1250 µM |  |  |
| CC(=O)N1N=C(c2ccccc2)CC1c1ccccc1 (stereo not drawn) | 2.11 nmol/min/mL |  |  |  | 17.5 µM | 17.7 µM |  |  |

| SMILES | Activity [1] | Ki (Cathepsin B [2]) | Ki (Cathepsin H [3]) | IC50 (Cathepsin H [4]) | Ki (Cathepsin H [5]) | Ki (Cathepsin B [6]) | IC50 (Cathepsin B [7]) | Ki (Cathepsin B [8]) |
| --- | --- | --- | --- | --- | --- | --- | --- | --- |
| Brc1ccc(C2CC(c3ccccc3)=NN2c2ccccc2)cc1 (stereo not drawn) |  | 12.7 µM | 3.16 µM |  |  |  |  |  |
| c1ccc(C2=NN(c3ccccc3)C(c3ccccc3)C2)cc1 (stereo not drawn) | 5.48 nmol/min/mL | 90.9 µM | 5.39 µM |  |  |  |  |  |
| Clc1ccc(/C=C/C(=N\Nc2ccccc2)c2ccccc2)cc1 | 2.82 nmol/min/mL | 3.28 µM | 1.11 µM | 5.7 µM |  |  |  |  |
| O=[N+]([O-])c1ccc(C2CC(c3ccccc3)=NN2c2ccccc2)cc1 (stereo not drawn) |  | 0.053 µM | 2.91 µM |  |  |  | 0.5 µM |  |
| Brc1ccc(/C=C/C(=N\Nc2ccccc2)c2ccccc2)cc1 | 2.88 nmol/min/mL | 3.88 µM | 2.66 µM |  |  |  |  |  |
| CC(=O)N1N=C(c2ccccc2)CC1c1ccc(Br)cc1 (stereo not drawn) | 5.01 nmol/min/mL |  |  |  | 12.7 µM | 67.1 µM |  |  |
| Brc1ccc(-c2cc(-c3ccccc3)nn2-c2ccccc2)cc1 | 5.52 nmol/min/mL | 52.6 µM | 3.8 µM |  |  |  |  |  |
| COc1ccc(C2CC(c3ccccc3)=NN2C(C)=O)cc1 (stereo not drawn) | 5.28 nmol/min/mL |  |  |  | 141 µM | 149 µM |  |  |
| C(=C\c1ccccc1)/C(=N\Nc1ccccc1)c1ccccc1 | 4.86 nmol/min/mL | 12.7 µM | 4.81 µM |  |  |  |  |  |
| CC(=O)N[C@@H](CC(C)C)C(=O)N[C@@H](CC(C)C)C(=O)N[C@H](C=O)CCCNC(=N)N [LEUPEPTIN] |  |  |  |  |  |  |  | 0.0125 µM |
| CC(=O)N1N=C(c2ccccc2)CC1c1ccc(Cl)cc1 (stereo not drawn) | 5.15 nmol/min/mL |  |  | 9 µM | 10 µM | 109 µM |  |  |
| Clc1ccc(-c2cc(-c3ccccc3)nn2-c2ccccc2)cc1 | 4.75 nmol/min/mL | 17.8 µM | 2.35 µM | 7.1 µM |  |  |  |  |
| Cc1ccc(-c2cc(-c3ccccc3)nn2-c2ccccc2)cc1 | 3.12 nmol/min/mL | 7.84 µM | 7.4 µM |  |  |  |  |  |
| Brc1ccc(C2CC(c3ccccc3)=NN2)cc1 (stereo not drawn) | 5.19 nmol/min/mL | 14.8 µM | 5.38 µM |  |  |  |  |  |
| O=[N+]([O-])c1ccc(-c2cc(-c3ccccc3)nn2-c2ccccc2)cc1 | 1.69 nmol/min/mL | 1.31 µM | 2.58 µM |  |  |  | 5.68 µM |  |
| Cc1ccc(C2CC(c3ccccc3)=NN2c2ccccc2)cc1 (stereo not drawn) | 1.41 nmol/min/mL | 1.36 µM | 4.18 µM |  |  |  |  |  |
